Six compounds from patent US11679095B2, “Macrophages/microglia in neuro-inflammation associated with neurodegenerative diseases” (The General Hospital Corporation, priority 2016, dated 2023) can be followed below.

Series [1] can be described thus: Solubility in DMSO (stock solutions). The format is physicochemical. As to conditions: in comparison to the other compounds / earlier aliquot. As for the experimental part:
Therefore, a 25 mM stock solutions for all the compounds except for C3 and C4 were prepared. The stock solutions for C3 and C4 were prepared at 5 mM and 7.5 mM, respectively. C1 is the parent compound—cromolyn disodium.

The test system of another series is BV2-CD33^WT cells. Briefly: Aβ42 uptake ELISA, 3 h cromolyn derivative treatment, BV2-CD33^WT. The class given is cell-based. The method, then:
(§1) To investigate the effect of cromolyn derivatives on Aβ42 uptake in microglia, naïve BV2 or BV2-CD33^WT cells were plated in proliferating media. On the following day, cells were treated with DMSO (control) or the compounds at different concentrations in proliferating media for 3 hours. […] Afterwards, cells were washed with PBS and treated with DMSO or compounds in the presence of the untagged Aβ42 peptide (400 nM) in DMEM media for 2 hours. Compound toxicity was assessed in the media collected at the end of the treatment with CytoTox-ONE™ lactate dehydrogenase (LDH) assay. The remaining cells in the plate were washed with cold PBS and lysed with RIPA buffer supplemented with protease and phosphatase inhibitors. Protein concentrations in the lysate supernatants were determined using the Pierce™ BCA protein assay kit and 2-3 μg/well of total protein from each lysate was analyzed for Aβ42 uptake using the Aβ42 ELISA kit from Wako. Toxic compound concentrations were excluded from further studies.
Further, whether cromolyn derivatives impact Aβ42 uptake and clearance in BV2-CD33^WT cells was determined by two independent sets of experiments. BV2-CD33^WT cells were treated with DMSO (control) or cromolyn derivatives at different concentrations ranging between 5 and 150 μM.
The compound C2 was tested with other cromolyn derivatives in the second set of experiments.

In series [2] the test system is naïve BV2 microglial cells. Description: Aβ42 uptake ELISA, 3 h cromolyn derivative treatment, naïve BV2. The format is cell-based. To be noted: 3 hours + 2 hours. The method, then: as §1
To test whether cromolyn derivatives modulate Aβ42 uptake, naïve BV2 microglial cells were treated with DMSO (control) or cromolyn derivative compounds at different concentrations for 3 hours. Afterwards, the cells were washed and treated with DMSO or compounds in the presence of untagged Aβ42 peptide for 2 hours. At the end of the treatment, the cell lysates were collected. […]

For series [3], the system named is naïve BV2 microglial cells. Briefly: CytoTox-ONE lactate dehydrogenase (LDH) toxicity assay. The class given is cell-based. As to conditions: 3 hours + 2 hours with Aβ42. The method, then:
On the following day, cells were treated with DMSO (control) or the compounds at different concentrations in proliferating media for 3 hours. […] Afterwards, cells were washed with PBS and treated with DMSO or compounds in the presence of the untagged Aβ42 peptide (400 nM) in DMEM media for 2 hours. Compound toxicity was assessed in the media collected at the end of the treatment with CytoTox-ONETM lactate dehydrogenase (LDH) assay. The remaining cells in the plate were washed with cold PBS and lysed with RIPA buffer supplemented with protease and phosphatase inhibitors. […] Toxic compound concentrations were excluded from further studies. To investigate whether cromolyn derivatives induce cytotoxicity at higher doses, naïve BV2 microglial cells were incubated with DMSO (vehicle) or cromolyn derivatives at different concentrations for 3 hours. The cells were then washed and incubated with DMSO or compounds and soluble untagged Aβ42 for additional 2 hours. Afterwards, the cell media was collected and measured LDH released by the damaged cells to identify the compounds that induce cytolysis.

In another series the test system is BV2 microglial cells. Briefly: Aβ42 uptake in BV2 microglial cell cultures, cromolyn and/or ibuprofen (ELISA). The class given is cell-based. As to conditions: 10 μM, 100 μM, 1 mM; 16 hours, then 3 hours with soluble Aβ42. As for the experimental part: BV2 microglial cell cultures were treated with cromolyn and/or ibuprofen (10 μM, 100 μM, 1 mM) for 16 hours. Afterwards, cells were incubated with soluble Aβ42 and the compounds for 3 hours. After incubation, cells were collected for ELISA analysis. […] Results were derived from three independent experiments; **p<0.01, ***p<0.001, one-way ANOVA, Tukey's test). Data are represented as mean±SEM.

“Also recorded” adds a separate entry of the source.

On to `O=C(O)c1cc(=O)c2c(OCC(O)COc3cccc4oc(C(=O)O)cc(=O)c34)cccc2o1` [C1, Cromolyn Disodium, reference compound], for which the “solubility in DMSO” value in series [1] was “lower solubility in DMSO”.
Turning to `CCOC(=O)c1cc(=O)c2c(OCC(O)COc3cccc4oc(C(=O)OCC)cc(=O)c34)cccc2o1` [C3], the “solubility in DMSO” value in series [1] is given as “lower solubility in DMSO”.
As to `CCOC(=O)c1cc(=O)c2c(OCC(F)COc3cccc4oc(C(=O)OCC)cc(=O)c34)cccc2o1` [C4], the “solubility in DMSO” value in series [1] is “lower solubility in DMSO”. The Aβ42 uptake entry with BV2-CD33^WT cells (50 μM, first set of experiments) is on record as “dose-dependent effect”; in the series with BV2-CD33^WT cells (75 μM, second set of experiments), “most effective in increasing the Aβ42 uptake”; in the series on BV2-CD33^WT cells (50 and 75 μM, second set of experiments, vs DMSO), “effectively induced Aβ42 uptake”; in the series with BV2-CD33^WT cells (lower concentrations, second set of experiments, vs DMSO), “dose-dependent effect at lower concentrations”; in series [2] (75 μM, vs vehicle) it was “increased uptake of Aβ42 peptide; also recorded: significantly increased Aβ42 uptake levels”. In the series with BV2-CD33^WT cells (75 μM, first set of experiments), the “Aβ42 uptake in comparison to DMSO” value is “two-fold increase; also recorded: increased uptake of Aβ42”. In addition, in the series with BV2-CD33^WT cells (GraphPad Prism 7, first set of experiments), inhibition was half-maximal at 54.7 µM (IC50). In addition, in the series with BV2-CD33^WT cells (both sets of experiments), the “CD33-mediated inhibition of Aβ uptake and clearance” value was “reversed the CD33-mediated inhibition of Aβ uptake and clearance”.
On to `O=c1cc(CO)oc2cccc(OCC(F)COc3cccc4oc(CO)cc(=O)c34)c12` [C6], for which the Aβ42 uptake entry is reported as “dose-dependent effect in mediating inhibition of Aβ42 uptake” in the series with BV2-CD33^WT cells (different concentrations, first set of experiments, vs DMSO) and “robust inhibition of Aβ42 uptake” in series [2] (different concentrations).
For `CC(C)(C)C(=O)OCOC(=O)c1cc(=O)c2c(OCC(O)COc3cccc4oc(C(=O)OCOC(=O)C(C)(C)C)cc(=O)c34)cccc2o1` [C8], in series [3] (100 and 150 μM, vs DMSO), the “toxicity (LDH released)” value is on record as “showing toxicity; also recorded: increased toxicity”. Further, the “concentration at which toxicity is displayed in LDH assay” value in series [3] is no less than 100 µM.
In the case of `CC(C)Cc1ccc(C(C)C(=O)O)cc1` (stereo not shown) [ibuprofen], the “microglial Aβ42 uptake” value with BV2 microglial cells is listed as “not ibuprofen promotes microglial Aβ42 uptake”.
